From the NIST ThermoML archive (doi:10.1016/j.jct.2012.10.008)

Assay: xn = mol fraction of the nth substance listed
Conditions: 101 kPa, Liquid; for viscosity: Falling or rolling sphere viscometry; for mass density: Vibrating tube method

CCCC[NH3+].O=[N+]([O-])[O-] [n-butylammonium nitrate] + CO
Conditions	mass density, 293.15 K [kg/m3]	mass density, 298.15 K [kg/m3]	mass density, 303.15 K [kg/m3]	mass density, 308.15 K [kg/m3]	mass density, 313.15 K [kg/m3]	viscosity, 293.15 K [mPa·s]	viscosity, 298.15 K [mPa·s]	viscosity, 303.15 K [mPa·s]	viscosity, 308.15 K [mPa·s]	viscosity, 313.15 K [mPa·s]
x1 = 0.0999	884.86	880.73	876.67	872.57	868.45	1.377	1.267	1.173	1.119	1.014
x1 = 0.1998	944.76	940.97	937.17	933.38	929.59	2.723	2.466	2.248	2.058	1.893
x1 = 0.3012	987.04	983.43	979.82	976.23	972.64	4.923	4.382	3.934	3.555	3.229
x1 = 0.4005	1016.59	1013.11	1009.64	1006.18	1002.74	9.129	8	7.037	6.242	5.584
x1 = 0.5015	1039.93	1036.55	1033.17	1029.82	1026.48	14.79	12.8	11.16	9.779	8.66
x1 = 0.6507	1065.48	1062.21	1058.95	1055.7	1052.47	28.64	24.08	20.59	17.77	15.5
x1 = 0.8007	1085.18	1081.98	1078.78	1075.61	1072.46	51.33	42.07	35.23	29.65	25.41
x1 = 0.9007	1096.21	1093.04	1089.88	1086.74	1083.63	77.73	64.34	53.02	44.24	37.21
x1 = 1	1104.68	1101.52	1098.38	1095.26	1092.17	111.35	89.95	73.04	60.25	50.12

CCCC[NH3+].O=[N+]([O-])[O-] [n-butylammonium nitrate] + CCCO
Conditions	mass density, 293.15 K [kg/m3]	mass density, 298.15 K [kg/m3]	mass density, 303.15 K [kg/m3]	mass density, 308.15 K [kg/m3]	mass density, 313.15 K [kg/m3]	viscosity, 293.15 K [mPa·s]	viscosity, 298.15 K [mPa·s]	viscosity, 303.15 K [mPa·s]	viscosity, 308.15 K [mPa·s]	viscosity, 313.15 K [mPa·s]
x1 = 0.0999	855.12	851.36	847.56	843.75	839.91	4.091	3.599	3.182	2.824	2.516
x1 = 0.2004	898.27	894.64	890.99	887.32	883.65	6.691	5.828	5.108	4.503	3.989
x1 = 0.2994	935.27	931.74	928.19	924.64	921.09	10.45	8.998	7.81	6.822	6.009
x1 = 0.4007	968.52	965.08	961.63	958.18	954.74	16.54	14.11	12.11	10.49	9.207
x1 = 0.4995	997.32	993.96	990.59	987.23	983.88	22.52	19.08	16.29	14.05	12.19
x1 = 0.6495	1035.44	1032.16	1028.88	1025.62	1022.36	38.05	31.62	26.59	22.59	19.39
x1 = 0.7978	1067.64	1064.42	1061.21	1058.02	1054.86	61.01	49.83	41.2	34.54	29.21
x1 = 0.9008	1087.69	1084.51	1081.34	1078.19	1075.07	83.36	67.14	55.16	46.11	40.09
x1 = 1	1104.68	1101.52	1098.38	1095.26	1092.17	111.35	89.95	73.04	60.25	50.12
